# According to ChEMBL document CHEMBL1201862, “PubChem BioAssay data set” (2004):
#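 48-hour exposure; five concentrations; linearly interpolated endpoints. The concentration for 50% growth inhibition is given as GI50.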 The source made the active and inactive calls. No stated cut-off is given here; in the data, active = GI50 up to about 1.1 µM and inactive = higher.
# Experiments:
# Test in all cases: NCI-60 cell line screen, 48 h
# [1] = system: CAKI-1
# [2] = system: A549
# [3] = system: HCT-15
# [4] = system: SF-295
# [5] = system: HCT-116
# [6] = system: U-251
# [7] = system: HOP-92
# [8] = system: SN12C
# [9] = system: HL-60
# [10] = system: Malme-3M
# [11] = system: SF-268
# [12] = system: SK-OV-3
# [13] = system: SK-MEL-5
# [14] = system: SK-MEL-28
# [15] = system: UACC-62
# [16] = system: IGROV-1
# [17] = system: NCI-H460
Structure (SMILES),GI50 [1],GI50 [2],GI50 [3] [µM],GI50 [4],GI50 [5],GI50 [6],GI50 [7],GI50 [8],GI50 [9],GI50 [10],GI50 [11],GI50 [12],GI50 [13],GI50 [14],GI50 [15],GI50 [16],GI50 [17]
O=C1CCCC(O)=C1SC1=C(O)CCCC1=O,94.2 µM (inactive),70.3 µM (inactive),47.2,> 100 µM (inactive),76 µM (inactive),> 100 µM (inactive),> 100 µM (inactive),74 µM (inactive),> 100 µM (inactive),> 100 µM (inactive),> 100 µM (inactive),> 100 µM (inactive),> 100 µM (inactive),69.2 µM (inactive),46.9 µM (inactive),> 100 µM (inactive),
Cc1ccc([S+]([O-])c2ccccc2[N+](=O)[O-])cc1 (centres undefined),43.9 µM (inactive),70.1 µM (inactive),65,> 100 µM (inactive),> 10 µM (inactive),48.8 µM (inactive),60 µM (inactive),72.6 µM (inactive),29.1 µM (inactive),> 100 µM (inactive),,> 100 µM (inactive),70 µM (inactive),42.2 µM (inactive),> 100 µM (inactive),65.9 µM (inactive),79.8 µM (inactive)
C#CCn1c(=O)[nH]c(=O)c2cccnc21,> 100 µM (inactive),> 100 µM (inactive),> 100,> 100 µM (inactive),> 100 µM (inactive),> 100 µM (inactive),> 100 µM (inactive),> 100 µM (inactive),> 100 µM (inactive),> 100 µM (inactive),> 100 µM (inactive),> 100 µM (inactive),> 100 µM (inactive),> 100 µM (inactive),,,
OC1OC2COC(c3ccccc3)OC2C(O)C1O (centres undefined),> 100 µM (inactive),> 100 µM (inactive),> 100,> 100 µM (inactive),> 100 µM (inactive),> 100 µM (inactive),> 100 µM (inactive),> 100 µM (inactive),> 100 µM (inactive),> 100 µM (inactive),> 100 µM (inactive),> 100 µM (inactive),> 100 µM (inactive),,> 100 µM (inactive),> 100 µM (inactive),> 100 µM (inactive)
CS(=O)(=O)C1S(=O)(=O)OCCOS1(=O)=O,> 100 µM (inactive),> 100 µM (inactive),,> 100 µM (inactive),> 100 µM (inactive),> 100 µM (inactive),> 100 µM (inactive),> 100 µM (inactive),> 100 µM (inactive),> 100 µM (inactive),> 100 µM (inactive),> 100 µM (inactive),> 100 µM (inactive),> 100 µM (inactive),> 100 µM (inactive),> 100 µM (inactive),> 100 µM (inactive)
O=C(O)C(CS)Nc1c2ccccc2nc2ccccc12 (centres undefined),44.7 µM (inactive),67.5 µM (inactive),51.3,56.9 µM (inactive),> 10 µM (inactive),> 100 µM (inactive),49.7 µM (inactive),51.1 µM (inactive),80.4 µM (inactive),54.3 µM (inactive),> 100 µM (inactive),> 100 µM (inactive),,> 100 µM (inactive),,> 100 µM (inactive),36.1 µM (inactive)
Cc1cn(C2CC(O)C(COC(=O)c3ccccc3)O2)c(=O)[nH]c1=O (centres undefined),> 100 µM (inactive),> 100 µM (inactive),> 100,> 100 µM (inactive),> 100 µM (inactive),> 100 µM (inactive),> 100 µM (inactive),> 100 µM (inactive),> 100 µM (inactive),> 100 µM (inactive),> 10 µM (inactive),,> 100 µM (inactive),> 100 µM (inactive),> 100 µM (inactive),> 100 µM (inactive),> 100 µM (inactive)
